Results published in EP0802184B1, “N-Benzyl-2-phenylindoles as estrogenic agents” (Wyeth, priority 1996, dated 1997).

How the values were obtained:
[1] = system: Ishikawa cells; assay: Ishikawa Cell Alkaline Phosphatase Assay; type: cell-based, human; details: 48 h; for % Activation (Compound + 1 nM 17β-estradiol): 10^-6 M compound + 10^-9 M 17β-estradiol; for % Activation: compound alone, percent of response related to 1 nM 17β-estradiol
Method: Cells were treated for 48 h prior to assay. […] Sample population for at each dose was n=8. […] Plates are placed at -80°C for a minimum of 15 minutes. Plates are thawed at 37°C followed by the addition of 150μL of 0.1 M Tris-HCl, pH 9.8, containing 4 mM para-nitrophenylphosphate (pNPP) to each well (final concentration, 3 mM pNPP). Absorbance and slope calculations were made using the […] Application program (Bio-Tek Instruments, Inc., Winooski, VT). […] Various compounds were assayed for estrogenic activity by the alkaline phosphatase method and corresponding ED50 values (95% C.I.) were calculated. The four listed in the following were used as reference standards: A description of such methods is provided by Holinka, […]., Kuramoto, H. and Gurpide, E. (1986) Effects of steroid hormones and antisteroids on alkaline phosphatase activity in human endometrial cancer cells (Ishikawa Line). Cancer Research, 46:2771-2774, and by […]. and by […] simple and sensitive microtiter plate estrogen bioassay based on stimulation alkaline phosphatase in Ishikawa cells; […] Endocrinology, 6:2757-2762.

[2] = target: T1, estrogen receptor (Homo sapiens, UniProt P03372); assay: In vitro estrogen receptor binding assay (competition with [3H]-17β-estradiol); design: expressed in transfected cells; host or cells: CHO cells (ribosome-free cytosol); details: relative to 17β-estradiol=100; cytosol of CHO cells overexpressing the estrogen receptor
T1 sequence (P03372 1-595): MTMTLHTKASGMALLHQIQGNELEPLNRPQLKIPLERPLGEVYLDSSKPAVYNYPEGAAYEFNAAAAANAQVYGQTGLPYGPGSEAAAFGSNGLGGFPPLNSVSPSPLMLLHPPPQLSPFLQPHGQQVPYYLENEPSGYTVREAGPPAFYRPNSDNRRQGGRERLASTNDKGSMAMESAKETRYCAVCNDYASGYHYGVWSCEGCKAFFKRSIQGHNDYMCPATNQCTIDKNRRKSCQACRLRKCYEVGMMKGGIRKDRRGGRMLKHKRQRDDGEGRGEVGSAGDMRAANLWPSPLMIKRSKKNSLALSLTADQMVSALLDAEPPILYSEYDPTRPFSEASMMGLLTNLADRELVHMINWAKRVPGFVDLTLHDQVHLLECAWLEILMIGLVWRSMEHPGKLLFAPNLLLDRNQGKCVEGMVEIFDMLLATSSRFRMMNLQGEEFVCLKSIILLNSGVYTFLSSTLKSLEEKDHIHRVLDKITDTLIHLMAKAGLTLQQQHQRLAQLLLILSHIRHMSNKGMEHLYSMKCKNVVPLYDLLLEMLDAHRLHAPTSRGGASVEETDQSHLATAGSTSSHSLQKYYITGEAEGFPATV
Method: CHO cells overexpressing the estrogen receptor were grown in 150 mm^2 dishes in DMEM + 10% dextran coated charcoal, stripped fetal bovine serum. The plates were washed twice with PBS and once with 10mM Tris-HCl, pH 7.4, 1mM EDTA. Cells were harvested by scraping the surface and then the cell suspension was placed on ice. Cells were disrupted with a hand-held motorized tissue grinder using two, 10-second bursts. The crude preparation was centrifuged at 12,000g for 20 minutes followed by a 60 minute spin at 100,000g to produce a ribosome free cytosol. The cytosol was then frozen and stored at -80°C. Protein concentration of the cytosol was estimated using the BCA assay with reference standard protein.
100uG/100uL of the receptor preparation was aliquoted per well. […] The plate was incubated at room temperature for 2.5 h. At the end of this incubation period 150 uL of ice-cold dextran coated charcoal (5% activated charcoal coated with 0.05% 69K dextran) was added to each well and the plate was immediately centrifuged at 99g for 5 minutes at 4°C. 200 uL of the supernatant solution was then removed for scintillation counting. Samples were counted to 2% or 10 minutes, whichever occurs first. […] Also, wells containing radioactivity but no cytosol were processed with charcoal to estimate unremovable DPM of [^3H]
Counts per minute (CPM) of radioactivity were automatically converted to disintegrated per minute (DPM) by the Beckman LS 7500 Scintillation Counter using a set of quenched standards to generate a H# for each sample.
For the generation of IC50 curves, % binding is plotted vs compound. […] For a description of these methods, see Hulme, E.C., ed. 1992. Receptor-Ligand Interactions: A Practical Approach. IRL Press, New York.(see especially chapter 8).

[3] = target: T1, estrogen receptor; assay: 2X VIT ERE Transfection Assay (Infection Luciferase Assay); type: cell-based; details: 24 h; for % Activation with 1 nM 17β-estradiol: 1 uM compound + 1 nM 17β-estradiol (test for estrogen antagonism); for % Activation: compound alone (1 uM), compared to 17β-estradiol
Method: Chinese Hamster Ovary cells (CHO) which had been stably transfected with the human estrogen receptor were maintained in DMEM + 10% fetal bovine serum (FBS). 48h prior to treatment the growth medium was replaced with DMEM lacking phenol red + 10% dextran coated charcoal stripped FBS (treatment medium). Cells were plated at a density of 5000 cells/well in 96-well plates containing 200 µL of medium/well.
Reporter DNA (Promega plasmid pGL2 containing two tandem copies of the vitellogenin ERE in front of the minimal thymidine kinase promoter driving the luciferase gene) was combined with the B-galactosidase expression plasmid pCH110 (Pharmacia) and carrier DNA (pTZ18U) in the following ratio: • 10uG of reporter DNA • 5uG of pCH110DNA • 5 uG of pTZ18U • 20 uG of DNA/1 mL of transfection solution
20 uL of this mixture was added to each well of cells and remained on the cells for 16 h. […] Each treatment condition was performed on 8 wells (n=8) which were incubated for 24 h prior to the luciferase assay.
After removing the PBS, 25 uL of Promega lysis buffer was added to each well and allowed to stand at room temperature for 15 min, followed by 15 min at -80°C and 15 min at 37°C. 20 uL of lysate was transferred to an opaque 96 well plate for luciferase activity evaluation and the remaining lysate (5 uL) was used for the B-galactosidase activity evaluation (normalize transfection). The luciferan substrate (Promega) was added in 100 uL aliquots to each well automatically by the luminometer and the light produced (relative light units) was read 10 seconds after addition.
To the remaining 5 uL of lysate 45 uL of PBS was added. Then 50 uL of Promega B-galactosidase 2X assay buffer was added, mixed well and incubated at 37°C for 1 hour. A plate containing a standard curve (0.1 to 1.5 milliunits in triplicate) was set up for each experimental run. The plates were analyzed on a Molecular Devices spectrophotometric plate reader at 410 nm. The optical densities for the unknown were converted to milliunits of activity by mathematical extrapolation from the standard curve.
The luciferase data was generated as relative light units (RLUs) accumulated during a 10 second measurement and automatically transferred to a JMP (SAS Inc) file where background RLUs were subtracted. The B-galactosidase values were automatically imported into the file and these values were divided into the RLUs to normalize the data. The mean and standard deviations were determined from a n=8 for each treatment. […] These techniques are described by Tzukerman, M.T., Esty, A., Santiso-Mere, D., Danielian, P., Parker, M.G., Stein, R.B., Pike, J.W. and McDonnel, D.P. (1994). Human estrogen receptor transactivational capacity was determined by both cellular and promoter context and mediated by two functionally distinct intramolecular regions (see Molecular Endocrinology, 8:21-30).

SMILES	% Activation (Compound + 1 nM 17β-estradiol) [1] [%]	% Activation [1] [%]	Estrogen Receptor Affinity (reported as RBA: 17β-estradiol=100) [2]	% Activation with 1 nM 17β-estradiol [3] [%]	% Activation [3] [%]
Cc1c(-c2ccc(O)cc2)n(Cc2ccc(C#CCN(C)C)cc2)c2ccc(O)cc12 [Example 21, 2-(4-Hydroxy-phenyl)-3-methyl-1-[4-(3-N, N-dimethyl-1-yl-prop-1-ynyl)-benzyl]-1H-indol-5-ol]	34	34	53	34	34
Cc1c(-c2ccc(O)cc2)n(Cc2ccc(C#CCN3CCCCC3)cc2)c2ccc(O)cc12 [Example 22, 2-(4-Hydroxy-phenyl)-3-methyl-1-[4-(3-piperidin-1-yl-prop-1-ynyl)-benzyl]-1H-indol-5-ol]	23	27	23	19	17
